Laboratory results taken from PubChem BioAssay (NCI).
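In this assay, cells in 96-well plates receive the compound at five concentrations for 48 hours. Endpoints are linearly interpolated between the surrounding concentrations. TGI: total growth inhibition.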

Columns and labels:
Experiment in all cases: NCI-60 cell line screen, 48 h
NCI-H23 lung = tested on: NCI-H23 lung
SK-MEL-28 melanoma = tested on: SK-MEL-28 melanoma
A498 renal = tested on: A498 renal
BT-549 breast = tested on: BT-549 breast
SK-MEL-5 melanoma = tested on: SK-MEL-5 melanoma
CAKI-1 renal = tested on: CAKI-1 renal
CCRF-CEM leukemia = tested on: CCRF-CEM leukemia
HL-60(TB) leukemia = tested on: HL-60(TB) leukemia
SNB-19 CNS = tested on: SNB-19 CNS
K-562 leukemia = tested on: K-562 leukemia
NCI-H460 lung = tested on: NCI-H460 lung
HT29 colon = tested on: HT29 colon
LOX IMVI melanoma = tested on: LOX IMVI melanoma
MDA-MB-435 = tested on: MDA-MB-435
HOP-62 NSCLC = tested on: HOP-62 NSCLC
EKVX NSCLC = tested on: EKVX NSCLC
SW-620 colon = tested on: SW-620 colon
HCT-116 colon = tested on: HCT-116 colon
OVCAR-8 ovarian = tested on: OVCAR-8 ovarian
OVCAR-5 ovarian = tested on: OVCAR-5 ovarian
UACC-257 melanoma = tested on: UACC-257 melanoma
HCC-2998 colon = tested on: HCC-2998 colon
RXF 393 renal = tested on: RXF 393 renal
786-0 renal = tested on: 786-0 renal
KM12 colon = tested on: KM12 colon
RPMI-8226 leukemia = tested on: RPMI-8226 leukemia
A549 NSCLC = tested on: A549 NSCLC
COLO 205 colon = tested on: COLO 205 colon
TK-10 renal = tested on: TK-10 renal
SK-MEL-2 melanoma = tested on: SK-MEL-2 melanoma
MALME-3M melanoma = tested on: MALME-3M melanoma
NCI/ADR-RES ovarian = tested on: NCI/ADR-RES ovarian
SNB-75 CNS = tested on: SNB-75 CNS
OVCAR-3 ovarian = tested on: OVCAR-3 ovarian
PC-3 prostate = tested on: PC-3 prostate
SF-268 CNS = tested on: SF-268 CNS
NCI-H522 lung = tested on: NCI-H522 lung
HCT-15 colon = tested on: HCT-15 colon
SF-295 CNS = tested on: SF-295 CNS
MCF7 breast = tested on: MCF7 breast
MOLT-4 leukemia = tested on: MOLT-4 leukemia
SK-OV-3 ovarian = tested on: SK-OV-3 ovarian
HS 578T breast = tested on: HS 578T breast
UO-31 renal = tested on: UO-31 renal
ACHN renal = tested on: ACHN renal
T-47D breast = tested on: T-47D breast
M14 melanoma = tested on: M14 melanoma
OVCAR-4 ovarian = tested on: OVCAR-4 ovarian
U251 CNS = tested on: U251 CNS
MDA-MB-231 breast = tested on: MDA-MB-231 breast
DU-145 prostate = tested on: DU-145 prostate
UACC-62 melanoma = tested on: UACC-62 melanoma
HOP-92 NSCLC = tested on: HOP-92 NSCLC
IGROV1 ovarian = tested on: IGROV1 ovarian
SN12C renal = tested on: SN12C renal

CN(C)c1ccc(/C=C2\N=C(c3ccccc3)N(c3nc4ccc(Sc5ccccc5)cc4[nH]3)C2=O)cc1
TGI (NCI-H23 lung): > 100 µM | TGI (SK-MEL-28 melanoma): > 100 µM | TGI (A498 renal): > 100 µM | TGI (BT-549 breast): > 100 µM | TGI (SK-MEL-5 melanoma): > 100 µM | TGI (CAKI-1 renal): > 100 µM | TGI (CCRF-CEM leukemia): > 100 µM | TGI (HL-60(TB) leukemia): 33.3 µM | TGI (SNB-19 CNS): > 100 µM | TGI (K-562 leukemia): 96.6 µM | TGI (NCI-H460 lung): > 100 µM | TGI (HT29 colon): > 100 µM | TGI (LOX IMVI melanoma): > 100 µM | TGI (MDA-MB-435): 38.6 µM | TGI (HOP-62 NSCLC): > 100 µM | TGI (EKVX NSCLC): > 100 µM | TGI (SW-620 colon): > 100 µM | TGI (HCT-116 colon): > 100 µM | TGI (OVCAR-8 ovarian): > 100 µM | TGI (OVCAR-5 ovarian): > 100 µM | TGI (UACC-257 melanoma): 90.9 µM | TGI (HCC-2998 colon): 33.5 µM | TGI (RXF 393 renal): > 100 µM | TGI (786-0 renal): > 100 µM | TGI (KM12 colon): > 100 µM | TGI (RPMI-8226 leukemia): 71.4 µM | TGI (A549 NSCLC): > 100 µM | TGI (COLO 205 colon): 45.9 µM | TGI (TK-10 renal): 81.3 µM | TGI (SK-MEL-2 melanoma): 60.3 µM | TGI (MALME-3M melanoma): > 100 µM | TGI (NCI/ADR-RES ovarian): 85.3 µM | TGI (SNB-75 CNS): > 100 µM | TGI (OVCAR-3 ovarian): 59.3 µM | TGI (PC-3 prostate): > 100 µM | TGI (SF-268 CNS): > 100 µM | TGI (NCI-H522 lung): > 100 µM | TGI (HCT-15 colon): > 100 µM | TGI (SF-295 CNS): 72.2 µM | TGI (MCF7 breast): > 100 µM | TGI (MOLT-4 leukemia): > 100 µM | TGI (SK-OV-3 ovarian): 49.2 µM | TGI (HS 578T breast): > 100 µM | TGI (UO-31 renal): > 100 µM | TGI (ACHN renal): > 100 µM | TGI (T-47D breast): > 100 µM | TGI (M14 melanoma): > 100 µM | TGI (OVCAR-4 ovarian): > 100 µM | TGI (U251 CNS): > 100 µM | TGI (MDA-MB-231 breast): > 100 µM | TGI (DU-145 prostate): > 100 µM | TGI (UACC-62 melanoma): 82.4 µM | TGI (HOP-92 NSCLC): > 100 µM | TGI (IGROV1 ovarian): > 100 µM | TGI (SN12C renal): > 100 µM
